Conditions: pampa; 60.0 min; 50.0 µM

SMILES | Papp [×10⁻⁶ cm/s]
N=c1c2c(-c3ccccc3)c(-c3ccccc3)n(Cc3ccccc3)c2ncn1CCN | 78
N=c1c2c(-c3ccccc3)c(-c3ccccc3)n(Cc3ccccc3)c2ncn1CCCCCO | 203
Cn1nnnc1Sc1ncnc2scc(-c3cccc(F)c3)c12 | > 300
O=C1C[C@@]2(C(=O)N1)C(=O)N(Cc1ccc(Br)cc1F)C(=O)c1cccn12 | 21
CC(C)N(CCCCOCC(=O)NS(C)(=O)=O)c1cnc(-c2ccccc2)c(-c2ccccc2)n1 | 9
CC1(C)S[C@@H]2[C@H](NC(=O)COc3ccccc3)C(=O)N2[C@H]1C(=O)O | 6
CC(C)N(CCCNC(=O)Nc1ccc(C(C)(C)C)cc1)C[C@H]1O[C@@H](n2ccc3c(N)ncnc32)[C@H](O)[C@@H]1O | < 1
NC1CCN(C(=O)C2CCCN(c3nc(-c4ccccc4)nc4c3CCC4)C2)CC1 (centres undefined) | 179
C=CCN1CC[C@]23c4c5ccc(O)c4O[C@H]2[C@@H](OCCOCCOCCOCCOCCOCCOCCOC)CC[C@@]3(O)[C@H]1C5 | < 1
CC(C)[C@]12O[C@H]1[C@@H]1O[C@]13[C@]1(O[C@H]1C[C@H]1C4=C(CC[C@@]13C)C(=O)OC4)[C@@H]2O | < 1
O=S(=O)(Nc1cc(Cl)c(Oc2cnc3ccccc3c2)c(Cl)c1)c1ccc(Cl)cc1Cl | 24
COc1ccc(Cn2c(-c3ccccc3)c(-c3ccccc3)c3c(=N)n(CCCCO)cnc32)cc1 | 279
CN(C)c1cc2c(cc1Sc1nc3c(N)nccc3n1CCNCC(C)(C)C)OCO2 | 20
CO/N=C(\C(=O)N[C@@H]1C(=O)N2C(C(=O)OCOC(=O)C(C)(C)C)=C(/C=C\c3scnc3C)CS[C@H]12)c1csc(N)n1 | 11
CC(C)CN(CC(=O)N(CCCN1CCCC1=O)CC(N)=O)C(=O)CNCCc1ccccc1F | < 1
NC(=O)[C@H](Cc1ccccc1)NC(=O)[C@H](Cc1ccccc1)NC(=O)[C@@H]1CCCN1C(=O)[C@@H](N)Cc1ccc(O)cc1 | < 1
CC[C@@H]1C[C@]1(NC(=O)[C@@H]1C[C@@H]2CN1C(=O)[C@H](C(C)(C)C)NC(=O)OCC(C)(C)CCCCc1cccc3c1CN(C3)C(=O)O2)C(=O)NS(=O)(=O)C1CC1 | 10
CNCCC=C1c2ccccc2CCc2ccccc21 | 253
O=C(O)C[C@H]1CCc2c1[nH]c1ccc(OCc3ccc(C4CCCC4)c(C(F)(F)F)c3)cc21 | 46
O=C(CBr)N1CC([N+](=O)[O-])([N+](=O)[O-])C1 | < 1
Nc1nc2c(s1)CCN(Cc1ccc(Cl)cc1)CC2 | 127
CN(C(=O)/C=C/c1ccoc1)[C@@H]1CC[C@@]2(O)[C@H]3Cc4ccc(O)c5c4[C@@]2(CCN3CC2CC2)[C@H]1O5 | 13
Cc1ncc(COP(=O)(O)O)c(C=O)c1O | < 1
Cc1[nH]c2ccccc2c1C1(O)C(=O)N(Cc2ccccc2)c2ccc(Cl)cc21 (centres undefined) | > 300

SMILES | Papp [×10⁻⁶ cm/s]
Cc1ccccc1N(C)C1CN([S+](=O)([O-])c2cccc(C(F)(F)F)c2)C1 | > 300
COc1ccccc1NC(=O)C1=C(C)Nc2c(C(=O)Nc3ccc(F)cc3)cnn2C1c1ccc(Cl)cc1 (centres undefined) | < 1
Cn1nnnc1Sc1ncnc2scc(-c3ccc4c(c3)OCO4)c12 | 240
NC(=O)c1cccc(-c2cc(Nc3ccc(OC(F)(F)F)cc3)ncn2)c1 | 94.4
CN(C)CCN(C)C(=O)c1ccc(-c2ncc3cnc(-c4cccc(F)c4)cn23)cc1 | 90
CCN(CC)CCNC(=O)c1c(C)[nH]c(/C=C2\C(=O)Nc3ccc(F)cc32)c1C | 56
CCCN[C@H]1CCc2nc(N)sc2C1 | 4
CC1(C)SCCN(S(=O)(=O)c2ccc(Oc3ccncc3)cc2)[C@H]1C(=O)NO | 9
CC#CCC(C)[C@H](O)/C=C/[C@@H]1[C@H]2c3cccc(CCCC(=O)O)c3O[C@H]2C[C@H]1O (some centres undefined) | < 1
N=c1c2c(-c3ccccc3)cn(Cc3ccccc3)c2ncn1CCN | 131
CC(C)C(=O)OCc1cccc(OC(=O)[C@@H]2N3C(=O)[C@@H](NC(=O)Cc4ccccc4)[C@H]3SC2(C)C)c1 | 84
Cc1ccccc1CN1CCn2c(nn(CC3COc4ccccc4O3)c2=O)C1=O (centres undefined) | 57.7
O=C(NN1CCCCC1)c1nn(-c2ccc(Cl)cc2Cl)c(-c2ccc(C#Cc3ccc(C(F)(F)F)cc3)s2)c1CNS(=O)(=O)N1CCCC1 | 4
Cn1nnnc1Sc1ncnc2scc(-c3ccc(C(F)(F)F)cc3)c12 | > 300
c1nc(NC2CCCCCC2)c2cc(CNC[C@H]3CCCO3)sc2n1 | 105
Nc1ncnc2c1ncn2[C@H]1O[C@@H](CSCC[C@@H](N)C(=O)O)[C@H](O)[C@@H]1O | < 1
CN1N=C2CCN(C(=O)[C@H](COCc3ccccc3)NC(=O)C(C)(C)N)C[C@]2(Cc2ccccc2)C1=O | 15
O=C1CCc2ccc(OCCCCN3CCN(c4cccc(Cl)c4Cl)CC3)cc2N1 | 19
CN1CCN(c2ccc(C(=O)Nc3n[nH]c4ccc(Cc5cc(F)cc(F)c5)cc34)c(NC3CCOCC3)c2)CC1 | 113
N=c1c2c(-c3ccccc3)c(-c3ccccc3)n(CCc3ccccc3)c2ncn1CCCCCO | 183
COc1ccc(Cl)cc1NC(=O)c1sc2nc3c(cc2c1N)N1CCC3CC1 | < 1
Cn1nnnc1Sc1ncnc2scc(-c3ccc(C(=O)OC(C)(C)C)cc3)c12 | 72
Cn1c2cc(S(C)=O)sc2c2cnn(Cc3ccccc3F)c(=O)c21 (centres undefined) | 49
COC(=O)N[C@H](C(=O)N1CCC[C@H]1C(=O)Nc1ccc([C@@H]2CC[C@@H](c3ccc(NC(=O)[C@@H]4CCCN4C(=O)[C@@H](NC(=O)OC)C(C)C)cc3)N2c2ccc(C(C)(C)C)cc2)cc1)C(C)C | < 1

SMILES | Papp [×10⁻⁶ cm/s]
CN(C)CCn1nnnc1SCC1=C(C(=O)O)N2C(=O)[C@@H](NC(=O)Cc3csc(N)n3)[C@H]2SC1 | 6
COc1cc(OC)c(OC)cc1CN1CCc2nc(N3CCN(c4ccccc4F)CC3)ncc2C1 | > 300
Cc1ccnc2c1NC(=O)c1cccnc1N2C1CC1 | 26
CC=CC1=C(C(=O)O)N2C(=O)[C@@H](NC(=O)[C@H](N)c3ccc(O)cc3)[C@H]2SC1 | 282
c1ccc(CNCCNCc2ccccc2)cc1 | 107
CC#CC(=O)N1CCC[C@H]1c1nc(-c2ccc(C(=O)Nc3ccccn3)cc2)c2c(N)nccn12 | < 1
NC(=O)NCC(=O)N[C@H]1CC[C@H](Nc2nccc(-c3ccncc3)n2)C1 | < 1
CC(=O)O[C@H]1C[C@@H](C)O[C@H]2O[C@@H]3CC4CC[C@@H]5C(CC[C@]6(C)[C@@H](C7=CC(=O)OC7)CC[C@]56O)[C@@]4(C=O)C[C@H]3O[C@]21O (some centres undefined) | 54
NCc1ccccc1CC(=O)N[C@@H]1C(=O)N2C(C(=O)O)=C(CSc3nnnn3CC(=O)O)CS[C@H]12 | < 1
CN1CCN(CCCN2c3ccccc3Sc3ccc(C(F)(F)F)cc32)CC1 | 53
Cn1c(CCCCCCC(=O)NO)nc2cc(N(CCCl)CCCl)ccc21 | < 1
CC(=O)OCC1=C(C(=O)O)N2C(=O)C(NC(=O)Cc3cccs3)C2SC1 (centres undefined) | 2
COc1cccc(-c2csc3ncnc(Sc4nnnn4C)c23)c1 | 219
CCN1CCN(C(=O)N[C@@H](C(=O)N[C@]2(OC)C(=O)N3C(C(=O)O)=C(CSc4nnnn4C)CS[C@@H]32)[C@H](C)O)C(=O)C1=O | < 1
COc1ccccc1NC(=O)C1=C(C)Nc2c(C(=O)Nc3cccc(C)c3)cnn2C1c1ccccc1Cl (centres undefined) | 160
O=C1NC(=O)C(c2ccccc2)(c2ccccc2)N1 | 42
C1=C(c2cnc[nH]2)c2ccsc2CC1 | 5
O=c1c2c(c1=O)N(CCP(=O)(O)O)CCCN2 | < 1
CC(C)C[C@H](NC(=O)CNC(=O)c1cc(Cl)ccc1Cl)B1OC(=O)C(CC(=O)O)(CC(=O)O)O1 | < 1
CO/S(=N\S(=O)(=O)c1ccc(Cl)cc1)c1ccc([N+](=O)[O-])cc1 (centres undefined) | 4
CNS(=O)(=O)Cc1ccc2[nH]cc(CCN(C)C)c2c1 | < 1
Cc1cc2c(C(N)=O)cccc2n1-c1nc2c(c(NCc3ccccc3)n1)COCC2 | 90
N#Cc1ccc(C(=O)Nc2ccc(Cl)c(-c3nc4ncccc4o3)c2)c(F)c1 | 160
CC(C)C[C@@H](C(=O)N[C@@H](Cc1ccc(OCc2ccccc2)cc1)C(=O)NC(C)(C)C)N(C)Cc1ccc(C(C)(C)C)cc1 | > 300

SMILES | Papp [×10⁻⁶ cm/s]
Cn1nnnc1Sc1ncnc2scc(-c3cccc(C(F)(F)F)c3)c12 | 296
Cn1cnc2c(F)c(Nc3ccc(Br)cc3F)c(C(=O)NOCCO)cc21 | 19.3
CCC[C@@H](NC(=O)N1C(=O)C(CC)(CC)[C@@H]1Oc1ccc(C(=O)N2CCN(C)CC2)cc1)c1ccc2c(c1)OCO2 | > 300
CC(=CCCC1=CCC(C2=CC(=O)OC2O)OC1O)CCC1=C(C)CCCC1(C)C (centres undefined) | 9.8
Nc1ccc(-c2ccc3ncc4ccc(=O)n(-c5cccc(C(F)(F)F)c5)c4c3c2)cn1 | > 300
CCO/N=C(\C(=O)N[C@@H]1C(=O)N2C(C(=O)O)=C(Sc3nc(-c4cc[n+](C)cc4)cs3)CS[C@H]12)c1nsc(NP(=O)(O)O)n1 | 2
CC(=O)OCC1=C(C(=O)O)N2C(=O)C(NC(=O)CCCC(N)C(=O)O)C2SC1 (centres undefined) | 2
Cn1nnnc1Sc1ncnc2scc(-c3cccs3)c12 | 244
COc1c(C)cnc(Cn2cnc3c(Cl)nc(N)nc32)c1C | 3.17
CO/N=C(\C(=O)N[C@@H]1C(=O)N2C(C(=O)O)=C(C[N+]3(C)CCCC3)CS[C@H]12)c1csc(N)n1 | < 1
NCCc1ccc(O)c(O)c1 | < 1
O=C(c1ccc(-c2ncc3cnc(-c4ccccc4)cn23)cc1)N1CCS(=O)(=O)CC1 | 20
N=c1c2c(-c3ccccc3)cn(Cc3ccccc3)c2ncn1CCNCCO | 3
CC1=C(C(=O)O)N2C(=O)C(NC(=O)C(N)C3=CCC=CC3)C2SC1 (centres undefined) | < 1
Cn1nnnc1Sc1ncnc2scc(-c3ccc(Br)cc3)c12 | 159
COCCn1cnc2c(c(-c3ccccc3)cn2Cc2ccccc2)c1=N | 139
N=c1c2c(-c3ccccc3)c(-c3ccccc3)n(CCc3ccccc3)c2ncn1C1CCN(Cc2ccccc2)CC1 | 14
COc1ccc(-n2nc(C(F)F)cc2-c2ccc(S(C)=O)cc2)cc1 (centres undefined) | 115
NC(=O)c1cccc(-c2cc(O)cc(OC(=O)NC3CCCCC3)c2)c1 | 6
Cc1[nH]c(/C=C2\C(=O)Nc3ccc(F)cc32)c(C)c1C(=O)NC[C@H](O)CN1CCOCC1 | 42
O=C(Cc1cccs1)NC1C(=O)N2C(C(=O)[O-])=C(C[n+]3ccccc3)CSC12 (centres undefined) | < 1
CON(C)Cc1ccc(O)c2c1C[C@H]1C[C@H]3[C@H](N(C)C)C(=O)C(C(N)=O)=C(O)[C@@]3(O)C(=O)C1=C2O | 2
